Source: ChEMBL document CHEMBL1135198, “Structure-activity relationships of non-imidazole H(3) receptor ligands. Part 1” (Bioorg Med Chem Lett, 2002)

How the values were obtained:
Histamine H3 receptor = Histamine H3 receptor (Rattus norvegicus, UniProt Q9QYN8); assay: Binding affinity for the rat cortical Histamine H3 receptor
Histamine H1 receptor = Histamine H1 receptor (Homo sapiens, UniProt P35367); assay: Binding affinity for the human Histamine H1 Receptor
Histamine H2 receptor = Histamine H2 receptor (Homo sapiens, UniProt P25021); assay: Binding affinity for the human Histamine H2 receptor
Chain of Histamine H2 receptor (P25021 whole entry): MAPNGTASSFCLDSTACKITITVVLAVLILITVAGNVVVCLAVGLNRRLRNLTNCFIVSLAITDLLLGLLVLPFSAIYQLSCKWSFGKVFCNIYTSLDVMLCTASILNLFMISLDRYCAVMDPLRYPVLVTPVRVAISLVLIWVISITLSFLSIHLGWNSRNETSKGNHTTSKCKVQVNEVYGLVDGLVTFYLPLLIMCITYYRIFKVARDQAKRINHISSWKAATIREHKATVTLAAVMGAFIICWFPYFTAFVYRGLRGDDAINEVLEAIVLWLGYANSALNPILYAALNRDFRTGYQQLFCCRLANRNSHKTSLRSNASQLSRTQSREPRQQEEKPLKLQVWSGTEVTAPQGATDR

Chain of Histamine H1 receptor (P35367 whole entry): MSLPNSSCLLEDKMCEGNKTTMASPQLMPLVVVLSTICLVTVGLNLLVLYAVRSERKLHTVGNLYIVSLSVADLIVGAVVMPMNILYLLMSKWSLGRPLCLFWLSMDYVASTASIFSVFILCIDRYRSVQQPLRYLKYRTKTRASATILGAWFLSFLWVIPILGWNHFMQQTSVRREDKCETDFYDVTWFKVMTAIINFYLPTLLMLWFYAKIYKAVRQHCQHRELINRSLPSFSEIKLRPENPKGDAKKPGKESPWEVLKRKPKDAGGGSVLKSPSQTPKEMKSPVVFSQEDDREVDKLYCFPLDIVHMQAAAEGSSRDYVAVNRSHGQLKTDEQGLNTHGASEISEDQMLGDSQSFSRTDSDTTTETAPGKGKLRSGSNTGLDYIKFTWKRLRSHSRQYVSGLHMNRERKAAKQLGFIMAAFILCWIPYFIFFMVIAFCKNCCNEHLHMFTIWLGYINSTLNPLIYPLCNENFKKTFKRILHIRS
Chain of Histamine H3 receptor (Q9QYN8 whole entry): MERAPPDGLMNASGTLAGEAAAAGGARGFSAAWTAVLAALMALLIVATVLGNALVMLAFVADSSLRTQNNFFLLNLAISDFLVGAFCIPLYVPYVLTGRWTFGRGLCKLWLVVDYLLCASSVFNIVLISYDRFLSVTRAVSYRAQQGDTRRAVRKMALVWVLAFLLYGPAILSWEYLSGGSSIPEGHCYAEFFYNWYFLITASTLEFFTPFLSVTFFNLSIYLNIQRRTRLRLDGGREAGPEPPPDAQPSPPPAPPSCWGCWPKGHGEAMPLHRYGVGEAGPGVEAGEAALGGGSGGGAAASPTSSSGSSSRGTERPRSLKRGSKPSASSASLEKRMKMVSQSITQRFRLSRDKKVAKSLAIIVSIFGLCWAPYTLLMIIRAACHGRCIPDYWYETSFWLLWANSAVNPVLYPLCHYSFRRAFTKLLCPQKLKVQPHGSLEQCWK

Row | Compound | Ki (Histamine H3 receptor) [µM] | Ki (Histamine H1 receptor) [µM] | Ki (Histamine H2 receptor) [µM]
1 | CCOC(=O)N1CCN(CCCOc2ccc(C(=O)c3cccc(C)c3)cc2)CC1 | 0.288 | 0.38 | 3.72
2 | CCOC(=O)N1CCN(CCCOc2ccc(C(=O)C=C(C)C)cc2)CC1 | 0.0389 | 0.355 | 21.9
3 | CCCCCC(=O)c1ccc(OCCCN2CCN(S(=O)(=O)c3ccc(C#N)cc3)CC2)cc1 | 0.0372 | 13.5 | 12.3
4 | CCCCCC(=O)c1ccc(OCCCC2CCNCC2)cc1 | 58.9 |  | 
5 | CCCCCC(=O)c1ccc(OCCCN2CCN(C(=O)OCCCC)CC2)cc1 | 0.0204 | 0.575 | 1.86
6 | CCCCCC(=O)c1ccc(OCCCN2CCN(C(=O)Cc3ccccc3)CC2)cc1 | 0.01 | 0.0562 | 8.91
7 | CCCCCC(=O)c1ccc(OCCCN2CCN(C(=O)c3cccnc3)CC2)cc1 | 0.0204 | 0.724 | 60.3
8 | CCOC(=O)N1CCN(CCCOc2ccc(C(=O)c3ccc(OC)cc3)cc2)CC1 | 0.0398 | 0.813 | 8.32
9 | CCCCCC(=O)c1ccc(OCCCN2CCN(C(=O)NCC)CC2)cc1 | 0.0214 | 1.58 | 23.4
10 | CCCCCC(=O)c1ccc(OCCCN2CCN(C(=O)c3sccc3Cl)CC2)cc1 | 0.0295 | 0.0794 | 19.5
11 | CCOC(=O)N1CCN(CCCOc2ccc(C(=O)Cc3ccccc3)cc2)CC1 | 0.0692 | 0.933 | 12.6
12 | CCCCCC(=O)c1ccc(OCCCN2CCN(Cc3nccs3)CC2)cc1 | 0.0166 | 0.0603 | 7.08
13 | CCCCCC(=O)c1ccc(OCCCN2CCN(C(=O)c3cnco3)CC2)cc1 | 0.0447 | 4.27 | 27.5
14 | CCCCCC(=O)c1ccc(OCCCN2CCN(C(=O)c3ccccn3)CC2)cc1 | 0.0525 | 0.417 | 18.6
15 | CCCCCC(=O)c1ccc(OCCCN2CCN(C(=O)c3cnccn3)CC2)cc1 | 0.0182 | 2.04 | 46.8
16 | CCCCCC(=O)c1ccc(OCCCN2CCCCC2)cc1 | 0.0631 |  | 

Row | Compound | Ki (Histamine H3 receptor) [µM] | Ki (Histamine H1 receptor) [µM] | Ki (Histamine H2 receptor) [µM]
17 | CCCCCC(=O)c1ccc(OCCCN2CCN(C(=O)C(C)(C)O)CC2)cc1 | 0.0575 | 21.4 | 24.5
18 | C=C(C)C(=O)c1ccc(OCCCN2CCN(C(=O)OCC)CC2)cc1 | 0.055 | 0.977 | 22.4
19 | CCCCCC(=O)c1ccc(OCCCN2CCN(C(=O)c3cccs3)CC2)cc1 | 0.0162 | 0.0741 | 14.8
20 | CCOC(=O)N1CCN(CCCOc2ccc(C(=O)c3ccc(F)cc3)cc2)CC1 | 0.0676 | 0.209 | 42.7
21 | CCCCCC(=O)c1ccc(OCCCN2CCNCC2)cc1 | 0.0269 | 6.03 | 14.5
22 | CCCCCC(=O)c1ccc(OCCCN2CCN(C(=O)c3ccccc3)CC2)cc1 | 0.0363 | 0.288 | 12.3
23 | CCCCCC(=O)c1ccc(OCCCN2CCN(C(=O)C(C)C)CC2)cc1 |  | 3.98 | 29.5
24 | CCOC(=O)N1CCN(CCCOc2ccc(C(=O)c3cccc(F)c3F)cc2)CC1 | 0.0251 | 1.02 | 17.4
25 | CCCCCC(=O)c1ccc(OCCCN2CCN(CC3CC3)CC2)cc1 | 0.0158 | 2.24 | 18.6
26 | CCOC(=O)N1CCN(CCCOc2ccc(C(=O)C3CCCCC3)cc2)CC1 | 0.0251 | 0.603 | 7.94
27 | CCOC(=O)N1CCN(CCCOc2ccc(C(=O)c3ccc(C(C)(C)C)cc3)cc2)CC1 | 0.0132 | 0.562 | 1.55
28 | CCCCCC(=O)c1ccc(OCCCN2CCN(C(=O)c3ccc(C)s3)CC2)cc1 | 0.0158 | 0.0977 | 8.13
29 | CCCCCC(=O)c1ccc(OCCCN2CCN(CCCC)CC2)cc1 | 0.0135 | 0.661 | 7.59
30 | CCCCCC(=O)c1ccc(OCCCN2CCN(CCC)CC2)cc1 | 0.0275 | 3.39 | 27.5
31 | CCOC(=O)N1CCN(CCCOc2ccc(C(=O)c3ccc(SC)cc3)cc2)CC1 | 0.0589 | 0.447 | 6.17
32 | CCCCCC(=O)c1ccc(OCCCN2CCN(S(C)(=O)=O)CC2)cc1 | 0.0214 | 26.3 | 83.2

Now from value to compound:

Row | Ki (Histamine H3 receptor) [µM] | Ki (Histamine H1 receptor) [µM] | Ki (Histamine H2 receptor) [µM] | Compound
33 | 0.0126 | 11.2 | 20.9 | CCCCCC(=O)c1ccc(OCCCN2CCN(S(=O)(=O)C(C)C)CC2)cc1
34 | 0.00724 | 0.933 | 69.2 | CCOC(=O)N1CCN(CCCOc2ccc(C(=O)CC(C)C)cc2)CC1
35 | 0.00646 | 0.871 | 22.9 | CCCCCC(=O)c1ccc(OCCCN2CCN(C(=O)CCC)CC2)cc1
36 | 0.00316 | 1.91 | 31.6 | CCCCCC(=O)c1ccc(OCCCN2CCN(C(=O)CC)CC2)cc1
37 | 0.00214 | 1.78 | 31.6 | CCCCCC(=O)c1ccc(OCCCN2CCN(C(=O)C3CC3)CC2)cc1
38 | 0.00372 | 0.562 | 2.14 | CCCCCCCC(=O)c1ccc(OCCCN2CCN(C(=O)OCC)CC2)cc1
39 | 0.00468 | 1.41 | 79.4 | CCOC(=O)N1CCN(CCCOc2ccc(C(=O)C3CC3)cc2)CC1
40 | 0.0105 | 0.398 | 20 | CCCCCC(=O)c1ccc(OCCCN2CCN(C(=O)c3ccco3)CC2)cc1
41 | 0.00851 | 0.105 | 12.9 | CCCCCC(=O)c1ccc(OCCCN2CCN(C(=O)c3occc3C)CC2)cc1
42 | 0.00363 | 0.741 | 22.4 | CCCC(=O)c1ccc(OCCCN2CCN(C(=O)OCC)CC2)cc1
43 | 0.00447 | 0.525 | 19.5 | CCCCCC(=O)c1ccc(OCCCN2CCN(C(=O)c3c[nH]cn3)CC2)cc1
44 | 0.00724 | 0.617 | 6.76 | CCOC(=O)N1CCN(CCCOc2ccc(C(=O)/C=C/c3ccc(OC)cc3)cc2)CC1
45 | 0.00955 | 1.2 | 11.2 | CCCCCC(=O)c1ccc(OCCCN2CCN(C(=O)NC(C)C)CC2)cc1
46 | 0.011 | 1.1 | 22.9 | CCCCCC(=O)c1ccc(OCCCN2CCN(C(=O)CSCC)CC2)cc1
47 | 0.00589 | 4.17 | 17.8 | CCCCCC(=O)c1ccc(OCCCN2CCN(C(=O)N3CCOCC3)CC2)cc1
48 | 0.00933 | 0.457 | 9.55 | CCCCCC(=O)c1ccc(OCCCN2CCN(CC(C)C)CC2)cc1
49 | 0.00501 | 2.24 | 39.8 | CCOC(=O)N1CCN(CCCOc2ccc(C(C)=O)cc2)CC1
50 | 0.00316 | 0.355 | 10.2 | CCCCCC(=O)c1ccc(OCCCN2CCN(C(=O)C3CCC3)CC2)cc1
51 | 0.00794 | 0.501 | 2.69 | CCCCCCCCC(=O)c1ccc(OCCCN2CCN(C(=O)OCC)CC2)cc1
52 | 0.00302 | 1.07 | 12 | CCCCCC(=O)c1ccc(OCCCN2CCN(C(=O)OC)CC2)cc1
53 | 0.00631 | 0.427 | 25.1 | CCOC(=O)N1CCN(CCCOc2ccc(C(=O)/C=C/c3cccnc3)cc2)CC1
54 | 0.00631 | 0.479 | 22.4 | CCCCCC(=O)c1ccc(OCCCN2CCN(C(=O)c3ccncc3)CC2)cc1
55 | 0.00138 | 0.275 | 12.6 | CCCCCC(=O)c1ccc(OCCCN2CCN(C(=O)OCC)CC2)cc1
56 | 0.00741 | 1.05 | 14.8 | CCCCCC(=O)c1ccc(OCCCN2CCN(C(=O)N3CCCC3)CC2)cc1
57 | 0.00501 | 0.309 | 17.8 | CCCCCC(=O)c1ccc(OCCCN2CCN(C(=O)OC(C)C)CC2)cc1
58 | 0.00537 | 1.66 | 56.2 | CCOC(=O)N1CCN(CCCOc2ccc(C(=O)CC)cc2)CC1
59 | 0.00407 | 0.0562 | 11.7 | CCCCCC(=O)c1ccc(OCCCN2CCN(C(=O)c3cccn3C)CC2)cc1
60 | 0.01 | 0.275 | 3.72 | CCCCCC(=O)c1ccc(OCCCN2CCN(C(=O)OCC(C)C)CC2)cc1
